According to patent US20220402916A1, “SMALL MOLECULE INHIBITORS OF KRAS G12C MUTANT” (Merck Sharp & Dohme Corp., priority 2019, published 2022):
Where two headings read alike, the source gives them in different places.

Tests used:
[1] = molecular target: T1, Biotinylated KRAS G12C protein (Homo sapiens, UniProt P01116, C118S/C51S/C80L/G12C); experiment: SOS-catalyzed nucleotide exchange assay; type: biochemical; conditions: apparent potency; preincubation time of 60 minutes prior to addition of SOS
T1 construct: 183 amino acids; biotin on K10
T1 sequence (P01116 with tags, fused parts or gaps isoform P01116-2 G12C/C51S/C80L/C118S): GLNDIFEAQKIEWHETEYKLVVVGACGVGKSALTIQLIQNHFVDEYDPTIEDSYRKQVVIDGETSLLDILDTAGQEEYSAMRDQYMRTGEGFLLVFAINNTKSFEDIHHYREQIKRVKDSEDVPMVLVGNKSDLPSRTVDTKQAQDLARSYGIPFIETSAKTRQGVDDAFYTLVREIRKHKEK

[2] = test system: NCI-H358 cells; experiment: Cellular phospho-ERK assay; type: cell-based; conditions: Homo sapiens, NCI-H358, 2 h
Description: NCI-H358 cells (ATCC® CRL-5807™) were cultured in T150 flask in growth medium (RPMI medium 1640-GlutaMAX™-1 (ThermoFisher Scientific 61870) containing 10% fetal bovine serum (ThermoFisher Scientific 10091148)). The cells were harvested in growth medium after TrypLE (ThermoFisher scientific 12604021) digestion and were seeded in 384-well collagen coated cell culture plate (Corning 356702) at a density of 15,000 cells/well, and incubated at 37° C., 5% CO2 overnight. The compound dose-response titrations were prepared and appropriate amounts of compounds were dispensed in 384-well intermediate plate using Echo 550 liquid handler. RPMI medium 1640-GlutaMAX™-I were added to the intermediate plate and transferred to 384-well cell culture plate, which was incubated at 37° C., 5% CO2 for 2 hours. After removal of medium from the plate, cells were lysed in lysis buffer from Alpha SureFire® Ultra™ Multiplex p-Erk and total Erk assay kit (PerkinElmer MPSU-PTERK) containing Halt™ Protease and Phosphotase inhibitor cocktail (ThermoFisher Scientific 78446) at room temperature with constant shaking at 300 rpm for 30 minutes. The cell lysates were then transferred to OptiPlate-384 plate (PerkinElmer 6005620) and the phosphorylation of Erk and total Erk levels were detected by Alpha SureFire Ultra Multiplex p-Erk kit (PerkinElmer MPSU-PTERK) following the manufacturer's protocol. Assay plates were read on an EnVision Multimode Plate Reader (PerkinElmer) and the ratio of p-Erk vs total Erk in each well was used as the final readout. Dose response curves were analyzed using a 4-parameter logistic model to calculate IC50 values using spotfire software.

[3] = NCI-H358 cells, 2 hour incubation, ratio of p-Erk vs total Erk, read-out: IC50

Row | Compound | IC50 [1] [nM] | IC50 [2] [nM] | IC50 [2, 3] [nM]
1 | C=CC(=O)N1CCN(c2cc(C(=O)N3CCC[C@@H]3CN3CCCC3)nc3c2CCN(c2cccc4cccc(C)c24)C3)C[C@@H]1CC#N [Compound 63, 2-((S)-1-acryloyl-4-(7-(8-methylnaphthalen-1-yl)-2-((R)-2-(pyrrolidin-1-ylmethyl)pyrrolidine-1-carbonyl)-5,6,7,8-tetrahydro-1,7-naphthyridin-4-yl)piperazin-2-yl)acetonitrile] | 8 | 427 | 
2 | C=CC(=O)N1CCN(c2cc(C(=O)NCCN(C)C)nc3c2CCN(c2cccc4cccc(C)c24)C3)C[C@@H]1CC#N [Compound 64, (S)-4-(4-acryloyl-3-(cyanomethyl)piperazin-1-yl)-N-(2-(dimethylamino)ethyl)-7-(8-methylnaphthalen-1-yl)-5,6,7,8-tetrahydro-1,7-naphthyridine-2-carboxamide] | 2.7 |  | 106
3 | C=CC(=O)N1CCN(c2cc(C(=O)N[C@H](C)CN(C)C)nc3c2CCN(c2cccc4cccc(C)c24)C3)C[C@@H]1CC#N [Compound 65, 4-((S)-4-acryloyl-3-(cyanomethyl)piperazin-1-yl)-N-((R)-1-(dimethylamino)propan-2-yl)-7-(8-methylnaphthalen-1-yl)-5,6,7,8-tetrahydro-1,7-naphthyridine-2-carboxamide] | 2.1 |  | 16
4 | C=CC(=O)N1CCN(c2cc(C(=O)N[C@H](C)CN)nc3c2CCN(c2cccc4cccc(C)c24)C3)C[C@@H]1CC#N [Compound 67, 4-((S)-4-acryloyl-3-(cyanomethyl)piperazin-1-yl)-N—((R)-1-aminopropan-2-yl)-7-(8-methylnaphthalen-1-yl)-5,6,7,8-tetrahydro-1,7-naphthyridine-2-carboxamide] | 5.9 |  | 433
5 | C=CC(=O)N1CCN(c2cc(C(=O)N[C@H](C)CN3CC(F)(F)C3)nc3c2CCN(c2cccc4cccc(C)c24)C3)C[C@@H]1CC#N [Compound 68, 4-((S)-4-acryloyl-3-(cyanomethyl)piperazin-1-yl)-N—((R)-1-(3,3-difluoroazetidin-1-yl)propan-2-yl)-7-(8-methylnaphthalen-1-yl)-5,6,7,8-tetrahydro-1,7-naphthyridine-2-carboxamide] | 29 |  | 2890
6 | C=CC(=O)N1CCN(c2cc(C(=O)N[C@H](C)CN3CC(O)(C(F)(F)F)C3)nc3c2CCN(c2cccc4cccc(C)c24)C3)C[C@@H]1CC#N [Compound 69, 4-((S)-4-acryloyl-3-(cyanomethyl)piperazin-1-yl)-N-((R)-1-(3-hydroxy-3-(trifluoromethyl)azetidin-1-yl)propan-2-yl)-7-(8-methylnaphthalen-1-yl)-5,6,7,8-tetrahydro-1,7-naphthyridine-2-carboxamide] | 22 |  | 2000
7 | C=CC(=O)N1CCN(c2cc(C(=O)N[C@H](C)CN3CC(C)(O)C3)nc3c2CCN(c2cccc4cccc(C)c24)C3)C[C@@H]1CC#N [Compound 70, 4-((S)-4-acryloyl-3-(cyanomethyl)piperazin-1-yl)-N-((R)-1-(3-hydroxy-3-methylazetidin-1-yl)propan-2-yl)-7-(8-methylnaphthalen-1-yl)-5,6,7,8-tetrahydro-1,7-naphthyridine-2-carboxamide] | 2.2 |  | 57
8 | C=C(F)C(=O)N1CCN(c2cc(C(=O)N[C@H](C)CN(C)C)nc3c2CCN(c2cccc4cccc(C)c24)C3)C[C@@H]1CC#N [Compound 78, 4-((S)-3-(cyanomethyl)-4-(2-fluoroacryloyl)piperazin-1-yl)-N-((R)-1-(dimethylamino)propan-2-yl)-7-(8-methylnaphthalen-1-yl)-5,6,7,8-tetrahydro-1,7-naphthyridine-2-carboxamide] | 8.3 |  | 1250
9 | C=C(F)C(=O)N1CCN(c2cc(C(=O)N[C@H](C)CN(C)C(C)C)nc3c2CCN(c2cccc4cccc(C)c24)C3)C[C@@H]1CC#N [Compound 79, 4-((S)-3-(cyanomethyl)-4-(2-fluoroacryloyl)piperazin-1-yl)-N-((R)-1-(isopropyl(methyl)amino)propan-2-yl)-7-(8-methylnaphthalen-1-yl)-5,6,7,8-tetrahydro-1,7-naphthyridine-2-carboxamide] | 12 |  | 1280
10 | C=CC(=O)N1CCN(c2cc(C(=O)NC[C@@H]3CC(F)(F)CN3)nc3c2CCN(c2cccc4cccc(C)c24)C3)C[C@@H]1CC#N [Compound 80, 4-((S)-4-acryloyl-3-(cyanomethyl)piperazin-1-yl)-N-(((S)-4,4-difluoropyrrolidin-2-yl)methyl)-7-(8-methylnaphthalen-1-yl)-5,6,7,8-tetrahydro-1,7-naphthyridine-2-carboxamide] | 91 |  | 6360
11 | C=CC(=O)N1CCN(c2cc(C(=O)NC[C@H]3CC(F)(F)CN3)nc3c2CCN(c2cccc4cccc(C)c24)C3)C[C@@H]1CC#N [Compound 81, 4-((S)-4-acryloyl-3-(cyanomethyl)piperazin-1-yl)-N-(((R)-4,4-difluoropyrrolidin-2-yl)methyl)-7-(8-methylnaphthalen-1-yl)-5,6,7,8-tetrahydro-1,7-naphthyridine-2-carboxamide] | 29 |  | 2970
12 | C=CC(=O)N1CCN(c2cc(C(=O)N[C@H](C)CN(C)C)nc3c2CCN(c2c(Cl)c(C)cc4[nH]ncc24)C3)CC1 [Compound 83, (R)-4-(4-acryloylpiperazin-1-yl)-7-(5-chloro-6-methyl-1H-indazol-4-yl)-N-(1-(dimethylamino)propan-2-yl)-5,6,7,8-tetrahydro-1,7-naphthyridine-2-carboxamide] | 90 |  | 1600
13 | C=CC(=O)N1CCN(c2cc(C(=O)N[C@H](C)CN(C)C)nc3c2CCN(c2c(Cl)c(C)cc4[nH]ncc24)C3)C[C@@H]1CC#N [Compound 84, 4-((S)-4-acryloyl-3-(cyanomethyl)piperazin-1-yl)-7-(5-chloro-6-methyl-1H-indazol-4-yl)-N—((R)-1-(dimethylamino)propan-2-yl)-5,6,7,8-tetrahydro-1,7-naphthyridine-2-carboxamide] | 0.9 |  | 96
14 | C=CC(=O)N1CCN(c2cc(C(=O)NC[C@H](C)N)nc3c2CCN(c2cccc4cccc(C)c24)C3)C[C@@H]1CC#N [Compound 86, 4-((S)-4-acryloyl-3-(cyanomethyl)piperazin-1-yl)-N—((S)-2-aminopropyl)-7-(8-methylnaphthalen-1-yl)-5,6,7,8-tetrahydro-1,7-naphthyridine-2-carboxamide] | 11 |  | 1650
15 | C=CC(=O)N1CCN(c2cc(C(=O)NC(CN)CN)nc3c2CCN(c2cccc4cccc(C)c24)C3)C[C@@H]1CC#N [Compound 87, (S)-4-(4-acryloyl-3-(cyanomethyl)piperazin-1-yl)-N-(1,3-diaminopropan-2-yl)-7-(8-methylnaphthalen-1-yl)-5,6,7,8-tetrahydro-1,7-naphthyridine-2-carboxamide] | 15 |  | 26700
16 | C=CC(=O)N1CCN(c2cc(C(=O)NC3(CN)CC3)nc3c2CCN(c2cccc4cccc(C)c24)C3)C[C@@H]1CC#N [Compound 88, (S)-4-(4-acryloyl-3-(cyanomethyl)piperazin-1-yl)-N-(1-(aminomethyl)cyclopropyl)-7-(8-methylnaphthalen-1-yl)-5,6,7,8-tetrahydro-1,7-naphthyridine-2-carboxamide] | 4.3 |  | 1000
17 | C=CC(=O)N1CCN(c2cc(C(=O)NCC3(N)CCCCC3)nc3c2CCN(c2cccc4cccc(C)c24)C3)C[C@@H]1CC#N [Compound 89, (S)-4-(4-acryloyl-3-(cyanomethyl)piperazin-1-yl)-N-((1-aminocyclohexyl)methyl)-7-(8-methylnaphthalen-1-yl)-5,6,7,8-tetrahydro-1,7-naphthyridine-2-carboxamide] | 15 |  | 5680
18 | C=CC(=O)N1CCN(c2cc(C(=O)NCC3(N)CCOCC3)nc3c2CCN(c2cccc4cccc(C)c24)C3)C[C@@H]1CC#N [Compound 90, (S)-4-(4-acryloyl-3-(cyanomethyl)piperazin-1-yl)-N-((4-aminotetrahydro-2H-pyran-4-yl)methyl)-7-(8-methylnaphthalen-1-yl)-5,6,7,8-tetrahydro-1,7-naphthyridine-2-carboxamide] | 21 |  | 2340
19 | C=CC(=O)N1CCN(c2cc(C(=O)NCC3(N)CCCCCC3)nc3c2CCN(c2cccc4cccc(C)c24)C3)C[C@@H]1CC#N [Compound 91, (S)-4-(4-acryloyl-3-(cyanomethyl)piperazin-1-yl)-N-((1-aminocycloheptyl)methyl)-7-(8-methylnaphthalen-1-yl)-5,6,7,8-tetrahydro-1,7-naphthyridine-2-carboxamide] | 12 |  | 7860
